From the supplement of paper PMC10307832

How the values were obtained:
Test in all cases: relative viability (nuclei count vs DMSO), 5 days (fraction); higher = more cells survive
201T = test system: 201T
Summary of the method: (§1)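 One day after seeding in 1536-well plates, lung cancer cell lines were dosed by pin tool. Dosing was either single-drug or a fixed anchor-drug dose plus five library-drug doses (not always all listed) in √10 steps. After 5 days, nuclei were stained in one fix-and-stain step and counted on 4× images, and relative viability is the nuclei count of treated wells over that of vehicle wells, given as the median of duplicate plates.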

BEN = test system: BEN
Summary of the method: as §1

HCC-827 = test system: HCC-827
Summary of the method: as §1

LCLC-103H = test system: LCLC-103H
Summary of the method: as §1

LCLC-97TM1 = test system: LCLC-97TM1
Summary of the method: as §1

LXF-289 = test system: LXF-289
Summary of the method: as §1

NCI-H1395 = test system: NCI-H1395
Summary of the method: as §1

NCI-H1437 = test system: NCI-H1437
Summary of the method: as §1

NCI-H1650 = test system: NCI-H1650
Summary of the method: as §1

NCI-H1792 = test system: NCI-H1792
Summary of the method: as §1

NCI-H1793 = test system: NCI-H1793
Summary of the method: as §1

NCI-H1944 = test system: NCI-H1944
Summary of the method: as §1

NCI-H2087 = test system: NCI-H2087
Summary of the method: as §1

NCI-H2405 = test system: NCI-H2405
Summary of the method: as §1

NCI-H3122 = test system: NCI-H3122
Summary of the method: as §1

NCI-H322M = test system: NCI-H322M
Summary of the method: as §1

NCI-H647 = test system: NCI-H647
Summary of the method: as §1

NCI-H727 = test system: NCI-H727
Summary of the method: as §1

RERF-LC-KJ = test system: RERF-LC-KJ
Summary of the method: as §1

SK-LU-1 = test system: SK-LU-1
Summary of the method: as §1

Structure (SMILES): O=c1cc(N2CCOCC2)oc2c(-c3cccc4c3sc3ccccc34)cccc12 + Nc1ncn([C@H]2C[C@H](O)[C@@H](CO)O2)c(=O)n1 [Decitabine] (partner 2 µM)
- relative viability (201T; first compound 0.01 µM): 0.843
- relative viability (201T; first compound 0.03162 µM): 0.863
- relative viability (201T; first compound 0.1 µM): 0.83
- relative viability (201T; first compound 0.3162 µM): 0.86
- relative viability (201T; first compound 1 µM): 0.818
- relative viability (BEN; first compound 0.01 µM): 0.73
- relative viability (BEN; first compound 0.03162 µM): 0.748
- relative viability (BEN; first compound 0.1 µM): 0.589
- relative viability (BEN; first compound 0.3162 µM): 0.76
- relative viability (BEN; first compound 1 µM): 0.664
- relative viability (HCC-827; first compound 0.01 µM): 0.291
- relative viability (HCC-827; first compound 0.03162 µM): 0.329
- relative viability (HCC-827; first compound 0.1 µM): 0.296
- relative viability (HCC-827; first compound 0.3162 µM): 0.314
- relative viability (HCC-827; first compound 1 µM): 0.161
- relative viability (LCLC-103H; first compound 0.01 µM): 0.807
- relative viability (LCLC-103H; first compound 0.03162 µM): 0.763
- relative viability (LCLC-103H; first compound 0.1 µM): 0.766
- relative viability (LCLC-103H; first compound 0.3162 µM): 0.77
- relative viability (LCLC-103H; first compound 1 µM): 0.686
- relative viability (LCLC-97TM1; first compound 0.01 µM): 0.261
- relative viability (LCLC-97TM1; first compound 0.03162 µM): 0.227
- relative viability (LCLC-97TM1; first compound 0.1 µM): 0.227
- relative viability (LCLC-97TM1; first compound 0.3162 µM): 0.252
- relative viability (LCLC-97TM1; first compound 1 µM): 0.235
- relative viability (LXF-289; first compound 0.01 µM): 0.457
- relative viability (LXF-289; first compound 0.03162 µM): 0.386
- relative viability (LXF-289; first compound 0.1 µM): 0.391
- relative viability (LXF-289; first compound 0.3162 µM): 0.371
- relative viability (LXF-289; first compound 1 µM): 0.392
- relative viability (NCI-H1395; first compound 0.03162 µM): 0.772
- relative viability (NCI-H1395; first compound 0.1 µM): 0.656
- relative viability (NCI-H1395; first compound 0.3162 µM): 0.701
- relative viability (NCI-H1395; first compound 1 µM): 0.692
- relative viability (NCI-H1437; first compound 0.01 µM): 0.587
- relative viability (NCI-H1437; first compound 0.03162 µM): 0.562
- relative viability (NCI-H1437; first compound 0.1 µM): 0.638
- relative viability (NCI-H1437; first compound 0.3162 µM): 0.549
- relative viability (NCI-H1437; first compound 1 µM): 0.625
- relative viability (NCI-H1650; first compound 0.01 µM): 0.362
- relative viability (NCI-H1650; first compound 0.03162 µM): 0.384
- relative viability (NCI-H1650; first compound 0.1 µM): 0.489
- relative viability (NCI-H1650; first compound 0.3162 µM): 0.53
- relative viability (NCI-H1650; first compound 1 µM): 0.399
- relative viability (NCI-H1792; first compound 0.01 µM): 0.581
- relative viability (NCI-H1792; first compound 0.03162 µM): 0.531
- relative viability (NCI-H1792; first compound 0.3162 µM): 0.556
- relative viability (NCI-H1792; first compound 1 µM): 0.561
- relative viability (NCI-H1793; first compound 0.01 µM): 0.503
- relative viability (NCI-H1793; first compound 0.03162 µM): 0.502
- relative viability (NCI-H1793; first compound 0.1 µM): 0.564
- relative viability (NCI-H1793; first compound 0.3162 µM): 0.54
- relative viability (NCI-H1793; first compound 1 µM): 0.443
- relative viability (NCI-H1944; first compound 0.01 µM): 0.488
- relative viability (NCI-H1944; first compound 0.03162 µM): 0.448
- relative viability (NCI-H1944; first compound 0.1 µM): 0.443
- relative viability (NCI-H1944; first compound 0.3162 µM): 0.408
- relative viability (NCI-H1944; first compound 1 µM): 0.481
- relative viability (NCI-H2087; first compound 0.01 µM): 0.261
- relative viability (NCI-H2087; first compound 0.03162 µM): 0.257
- relative viability (NCI-H2087; first compound 0.1 µM): 0.336
- relative viability (NCI-H2087; first compound 0.3162 µM): 0.306
- relative viability (NCI-H2087; first compound 1 µM): 0.297
- relative viability (NCI-H2405; first compound 0.01 µM): 0.82
- relative viability (NCI-H2405; first compound 0.03162 µM): 0.715
- relative viability (NCI-H2405; first compound 0.1 µM): 0.812
- relative viability (NCI-H2405; first compound 0.3162 µM): 0.76
- relative viability (NCI-H2405; first compound 1 µM): 0.788
- relative viability (NCI-H3122; first compound 0.01 µM): 0.405
- relative viability (NCI-H3122; first compound 0.03162 µM): 0.436
- relative viability (NCI-H3122; first compound 0.1 µM): 0.564
- relative viability (NCI-H3122; first compound 0.3162 µM): 0.452
- relative viability (NCI-H3122; first compound 1 µM): 0.388
- relative viability (NCI-H322M; first compound 0.01 µM): 0.683
- relative viability (NCI-H322M; first compound 0.03162 µM): 0.678
- relative viability (NCI-H322M; first compound 0.3162 µM): 0.748
- relative viability (NCI-H322M; first compound 1 µM): 0.751
- relative viability (NCI-H647; first compound 0.01 µM): 0.318
- relative viability (NCI-H647; first compound 0.03162 µM): 0.356
- relative viability (NCI-H647; first compound 0.1 µM): 0.382
- relative viability (NCI-H647; first compound 0.3162 µM): 0.419
- relative viability (NCI-H647; first compound 1 µM): 0.371
- relative viability (NCI-H727; first compound 0.01 µM): 0.749
- relative viability (NCI-H727; first compound 0.03162 µM): 0.914
- relative viability (NCI-H727; first compound 0.1 µM): 0.796
- relative viability (NCI-H727; first compound 0.3162 µM): 0.954
- relative viability (NCI-H727; first compound 1 µM): 0.773
- relative viability (RERF-LC-KJ; first compound 0.01 µM): 0.746
- relative viability (RERF-LC-KJ; first compound 0.03162 µM): 0.697
- relative viability (RERF-LC-KJ; first compound 0.1 µM): 0.778
- relative viability (RERF-LC-KJ; first compound 0.3162 µM): 0.751
- relative viability (RERF-LC-KJ; first compound 1 µM): 0.712
- relative viability (SK-LU-1; first compound 0.01 µM): 0.641
- relative viability (SK-LU-1; first compound 0.03162 µM): 0.621
- relative viability (SK-LU-1; first compound 0.1 µM): 0.596
- relative viability (SK-LU-1; first compound 0.3162 µM): 0.621
- relative viability (SK-LU-1; first compound 1 µM): 0.661
